Experimental data taken from publication PMC5571359, “Screening the Medicines for Malaria Venture Pathogen Box across Multiple Pathogens Reclassifies Starting Points for Open-Source Drug Discovery” (Antimicrobial Agents and Chemotherapy, 2017).
Like-named read-outs stand apart in the source and are kept apart here.

Experiments:
[1] = system: NF54-pfs16-LUC-GFP stage IV gametocytes; assay: Plasmodium falciparum late stage gametocyte (LSG) image-based assay; type: cell-based
[2] = system: T. cruzi intracellular amastigotes; assay: Intracellular anti-Trypanosoma cruzi image-based assay (amastigotes); type: cell-based
[3] = system: T. b. brucei 427 bloodstream trypanosomes; assay: T. b. brucei resazurin viability assay; type: cell-based, Trypanosoma brucei brucei
[4] = system: Plasmodium falciparum 3D7 asexual blood stage; conditions: read-out: IC50 P. falciparum 3D7 ABS
[5] = system: L. donovani MHOM/IN/80/DD8 intracellular amastigotes; assay: Leishmania donovani intracellular amastigote assay in THP-1 cells; type: cell-based
[6] = system: HEK293 cells; assay: HEK293 resazurin cell cytotoxicity assay
[7] = system: 3T3 host cells; assay: T. cruzi assay, activity against 3T3 host cells; type: cell-based; conditions: reference compound set; IA = inactive at 16.4 μM
Description: page 4: […] Puromycin, 71 chloroquine, artesunate, DHA, pyronaridine and pyrimethamine were also tested in 72 IC50 format to act as internal reference compounds. 73 74 Intracellular anti-Trypanosoma cruzi Assay Protocol 75 The host cell cytoplasm, in which the parasite resides, is identified by the fluorescent 76 marker, HCS CellMask Green. Parasite and host cell nuclei are detected with the 77 fluorescent DNA intercalator, Hoechst 33342. The Opera® High Content Screening 78 System is used to take images of wells and a spot detection algorithm is used to 79 identify parasites within the cytoplasm. 80 81 Briefly, 1x 10^3 3T3 cells were added to collagen coated 384-well plates and following 82 24 hrs incubation at 37 °C, a multiplicity of infection (MOI) of 5:1 parasite: host cells 83 were added to the plate using a Multidrop liquid handler. Following additional 24 hrs 84 incubation, extracellular parasites were washed from the plates and RPMI with no […] 86 added to all wells. The final volume of media in the primary screening assay, before 87 addition of compound, was modified slightly to 55 µL. One µL of compounds, provided 88 by Compounds Australia, were diluted by the addition of 25 µL of sterile water. This […] 91 donovani). Five microliters of this dilution was added to assay plates. The final […] The final concentrations of compounds in the […] Following 48 hrs incubation in the presence 97 of compounds, wells were fixed, stained and read on the Opera® High Content 98 Screening System to assess compound activity. 99 The Z′-factor, as a measure of assay reproducibility, was determined from a plate […] The positive control used to calculate activity against […] To 103 assess the sensitivity of the T. cruzi assay, activity of the reference compounds 104 benznidazole, NFX, posaconazole and puromycin were determined. […] 108 resazurin as a measure of parasite viability. 109 T. b. brucei trypanosomes were cultured in vitro in HM1-9 medium supplemented with […] Fifty-five µL of logarithmic phase […] 112 incubated for 24 hrs at 37°C /5% CO2. Compounds were subsequently added to the […] Following […] 116 37°C / 5% CO2 followed by 22 hrs at room temperature. […] The percent

[8] = system: L. donovani axenic amastigotes; set-up: method as in PBox supporting information; conditions: ref PBox supporting information; cited from earlier work
[9] = system: T. cruzi C4 β-galactosidase reporter parasite in MRC 5SV2 host cells; conditions: cited from earlier work
[10] = system: L. donovani (macrophages); set-up: method as in Pbox supporting information; conditions: ref Pbox supporting information; cited from earlier work
[11] = system: T. brucei brucei; conditions: ref Pbox supporting information; read-out: T.b. brucei Pbox IC50; cited from earlier work
[12] = system: L. infanium (macrophages); set-up: method as in Pbox supporting information; conditions: ref Pbox supporting information; cited from earlier work
[13] = system: infected PMM; set-up: method as in Pbox supporting information; conditions: ref Pbox supporting information, read-out: Toxicity on infected PMM Pbox IC50; cited from earlier work
[14] = system: T. brucei rhodesiense; conditions: ref Pbox supporting information; read-out: T .b. rohdensie Pbox IC50; cited from earlier work
[15] = system: HepG2; conditions: HepG2; ref PBox supporting information; cited from earlier work
[16] = system: Plasmodium falciparum 3D7 asexual blood stage; assay: microbe, parasite or virus in culture
[17] = system: L. major; set-up: method as in Pbox supporting information; conditions: ref Pbox supporting information; cited from earlier work
[18] = reference compound set, 11-point dose response, IA = inactive at 20 μM, read-out: IC50 P. falciparum NF54 LSG
[19] = reference compound set, IA = inactive at 16.4 μM, read-out: IC50 T. cruzi intracellular amastigotes
[20] = reference compound set, IA = inactive at 20 μM, read-out: IC50 T. brucei brucei trypomastigotes
[21] = reference compound set, 11-point dose response, IA = inactive at 20 μM
[22] = read-out: IC50 L. donovani n = 1, reference compound set, first test, IA = inactive at 20 μM
[23] = read-out: IC50 L. donovani n = 2, reference compound set, second test, IA = inactive at 20 μM
[24] = ref Pbox supporting information, read-out: T. cruzi Pbox IC50
[25] = Plasmodium falciparum, NF54, read-out: Antiplasmodial IC50 (GAM / LSG), PBox compounds, stage IV gametocytes, single determination
[26] = 3D7, read-out: Antiplasmodial IC50 (ABS), PBox compounds, P. falciparum 3D7
[27] = Homo sapiens, HEK293, read-out: HEK % Inhibition 20uM/IC50 Discovery Biology
[28] = Trypanosoma brucei, read-out: T b.brucei Discovery Biology IC50
[29] = Trypanosoma cruzi, intracellular amastigotes, read-out: T cruzi Discovery Biology IC50

SMILES | IC50 [8] | IC50 [9, 24] | IC50 [10] | IC50 [11] | IC50 [12] | IC50 [13] | IC50 [14] | HepG2 PBox CC20 [15] | also measured
CC(=O)OC[C@H]1O[C@@H]([S-])[C@H](OC(C)=O)[C@@H](OC(C)=O)[C@@H]1OC(C)=O.CCP(CC)CC.[Au+] [Auranofin, reference compound] | – | – | – | – | – | – | – | – | IC50 [1, 18]: 0.55 µM; IC50 [2, 19]: 3.02 µM; IC50 [3, 20]: 0.24 µM; IC50 [4, 21]: 0.7 µM; IC50 [5, 22]: 0.63 µM; IC50 [5, 23]: 2 µM; IC50 ([6]; read-out: IC50 mammalian cell cytotoxicity HEK293, reference compound set): 2.2 µM; IC50 [7]: 4.9 µM
C[C@H]1COc2c(N3CCN(C)CC3)c(F)cc3c(=O)c(C(=O)O)cn1c23 [Levofloxacin (–)-ofloxacin, reference compound] | – | – | – | – | – | – | – | – | IC50 [1, 18]: > 20 µM; IC50 [2, 19]: > 16.4 µM; IC50 [3, 20]: > 20 µM; IC50 [4, 21]: > 20 µM; IC50 [5, 22]: > 20 µM; IC50 [5, 23]: > 20 µM; IC50 [7]: > 16.4 µM
c1ccc(Oc2ccc(-c3cc(N4CCOCC4)[nH]n3)cc2)cc1 [MMV045105] | 3.87 µM | 16 µM | > 30 µM | 3.45 µM | 21.5 µM | > 30 µM | 1.29 µM | 7.5 µM | –
Cc1nc(-c2ccccn2)nc(N(C)CCc2ccccc2)c1Cl [MMV658988] | 0.02 µM | 0.88 µM | 2.6 µM | 14.9 µM | 4.06 µM | 16.7 µM | 11.8 µM | 11.3 µM | IC50 ([9]; 7 days exposure, ref PBox supporting information, read-out: T. cruzi IC50 in the PBox supporting information file): < 1 µM; IC50 [1, 25]: 0.3 µM; activity against T. cruzi at 8 μM in the Discovery Biology assay ([2]; 8 μM): no activity; IC50 [16, 26]: 2.18 µM; IC50 [6, 27]: > 20 µM
Cc1nc(-c2ccccn2)nc(NCCc2ccc(S(C)(=O)=O)cc2)c1Cl [MMV658993] | 2.05 µM | 4.44 µM | > 30 µM | > 32 µM | > 32 µM | 30 µM | > 32 µM | 27.9 µM | –
FC(F)(F)c1cc(NCCc2ccccc2)nc(-c2ccccn2)n1 [MMV659010] | 0.25 µM | 4.25 µM | 5.17 µM | > 32 µM | 16.2 µM | 30 µM | 27.2 µM | >80 µM | IC50 [1, 25]: 1.71 µM; IC50 [16, 26]: > 8 µM; IC50 [6, 27]: > 20 µM
N#CCN(CCCCN1CCN(c2ccc(F)cc2)CC1)C(=O)OCc1ccccc1 [MMV675997] | > 100 µM | 4.62 µM | 22.2 µM | 24.9 µM | 25.4 µM | > 30 µM | 16.4 µM | – | –
COc1ccc(C(=N)N)cc1-c1cn(-c2ccc(C(=N)N)cc2)nn1 [MMV675998] | 14.3 µM | 21.5 µM | > 30 µM | 0.25 µM | > 32 µM | 30 µM | < 0.13 µM | 5.5 µM | IC50 [3, 28]: 0.27 µM; IC50 [6, 27]: > 20 µM
O=C(Nc1c(O)cccc1-c1nc2c(C(=O)O)cccc2o1)c1cc(-c2ccccc2)on1 [MMV676008] | 0.57 µM | > 32 µM | > 30 µM | > 32 µM | > 32 µM | > 30 µM | > 32 µM | 5.7 µM | –
Clc1ccc(Cl)c(CO[C@H]2CCCC[C@@H]2n2ccnc2)c1 [MMV676048] | 15.6 µM | 1.36 µM | 12.8 µM | > 32 µM | 16.2 µM | 30 µM | 22.9 µM | 37.1 µM | Emax ([2]; Trypanosoma cruzi, PBox kinetoplastid set compounds active against T. cruzi alone, read-out: Emax against T. cruzi (subefficacious effect)): < 100%; IC50 [2, 29]: 3.21 µM; IC50 [6, 27]: > 20 µM
Clc1cccc(CO[C@H]2CCc3ccccc3[C@@H]2n2ccnn2)c1 [MMV676159] | 6.6 µM | 3.08 µM | > 30 µM | > 32 µM | > 32 µM | > 30 µM | > 32 µM | >80 µM | –
c1ccc(Oc2ccc(-c3cc(CN4CCOCC4)[nH]n3)cc2)cc1 [MMV676161] | 9.7 µM | 16 µM | 26.1 µM | 15.1 µM | > 32 µM | 30 µM | 5.26 µM | 28.9 µM | –
O=C(Nc1ccccc1-c1nc2c(C(=O)O)cccc2o1)c1ccccc1 [MMV676162] | 0.4 µM | > 32 µM | > 30 µM | > 32 µM | > 32 µM | > 30 µM | > 32 µM | >80 µM | –
COC(=O)c1cccc2oc(-c3cccc(OC)c3NC(=O)c3cc(-c4ccccc4)on3)nc12 [MMV676186] | 3.95 µM | > 32 µM | > 30 µM | > 32 µM | > 32 µM | > 30 µM | > 32 µM | >80 µM | –
Cc1ncc(-c2ccnc(Nc3ccc(S(C)(=O)=O)cc3)n2)n1C(C)C [MMV676604] | – | 1.08 µM | – | 0.26 µM | 1.15 µM | – | < 0.13 µM | 0.179 µM | IC50 [17]: 3.15 µM; IC50 [2, 29]: 1.18 µM; IC50 [3, 28]: 0.14 µM; IC50 ([16]; 3D7, read-out: Pf 3D7 Discovery Biology IC50, P. falciparum 3D7 asexual blood stage): 3.23 µM; IC50 ([5]; Leishmania donovani, THP-1, intracellular amastigotes, some values marked *, read-out: L, donovani Discovery Biology IC50): 4.82 µM; IC50 ([6]; Homo sapiens, HEK293, read-out: HEK % Discovery Biology IC50): 2.7 µM
Nc1ccc2ncnc(Nc3ccc(OCc4cccc(F)c4)c(Cl)c3)c2c1 [MMV688273] | – | 4.03 µM | – | > 32 µM | > 32 µM | – | 13.1 µM | 9.7 µM | IC50 [17]: 10.4 µM
O=C(CN1CCOCC1)Nc1ccc2ncnc(Nc3ccc(OCc4cccc(F)c4)c(Cl)c3)c2c1 [MMV688274] | – | 0.95 µM | – | 5.31 µM | > 32 µM | – | 3.07 µM | 10.9 µM | IC50 [17]: 12.4 µM
CN1CCN(S(=O)(=O)c2ccc(-c3ccc4c(Nc5ncc(Cl)cn5)ccnc4c3)cc2)CC1 [MMV688283] | – | 3.81 µM | – | 3.78 µM | 2.54 µM | – | 0.96 µM | 8.0 µM | IC50 [17]: 8.51 µM; IC50 [1, 25]: 4.1 µM; IC50 [3, 28]: 5.29 µM; IC50 [16, 26]: 0.66 µM; IC50 [6, 27]: > 20 µM
NCCC[C@](N)(C(=O)O)C(F)F [α-Difluoromethylornithine, reference compound] | – | – | – | – | – | – | – | – | IC50 [1, 18]: > 20 µM; IC50 [2, 19]: > 16.4 µM; IC50 [3, 20]: > 20 µM; IC50 [4]: > 20 µM; IC50 [5, 22]: > 20 µM; IC50 [5, 23]: > 20 µM; IC50 [7]: > 16.4 µM
